From patent US10701931B2, “Mosquito activating formulations” (Commonwealth Scientific and Industrial Research Organisation, priority 2015, dated 2020)
“And” between values parts separate entries of the source, which are not always exact repeats. Equal entries are not always repeated.

What was measured:
Total mosquito = assay: Field trial with CDC light traps, total mosquito catch; type: in vivo; settings: CDC light trap, one night, treatment per Table 3
Procedure: (§1) Field trials based on an imperfect Latin square design compared the attraction of An. farauti to MTPE with and without CO2. Treatments included CO2 alone, CO2 in combination with MTPE lure, or MTPE lure alone. Centres for Disease Control and Prevention (CDC) light traps were used to deliver MTPE lures and/or CO2. MTPE lures consisted of 500 μl of MTPE in mineral oil, 10-100,000 ppm spread on filter paper. MTPE/mineral oil mixtures were spread on filter paper, rolled into a tight wick, and inserted into a specimen tube. Specimen tubes where then wired to a CDC trap. CO2 was delivered using 1 kg dry ice, hung above a CDC light trap, as per standard sampling protocols. MTPE+/−CO2 combinations were randomised between 4 trap positions over three nights. Traps were placed at least 50 m apart to manage interference and were set between 5 pm and 7 am each night. Trap catches were subsequently returned to the laboratory, counted and identified as “Anopheles farauti s.l” or “other”.
(§2) As CO2 is a known mosquito attractant, all catches were compared to CO2 alone.

Anopheles stephensi [1] = assay: Y-tube olfactometer, measurement of attraction against CO2/1-octen-3-ol positive control; type: in vivo; settings: for Attraction (against CO2 + 1-octen-3-ol): An. stephensi females
Procedure: Attraction to these components was compared to a standard “positive control” known to elicit a directional response in An. stephensi mosquitoes placed in an olfactometer. The standard used as a positive control is a mix of compressed air, 5% CO2 and an octenol source. Unpaired t-test was used to test for the differences in means for all data sets presented.
The MR4 strain of An. stephensi (New Delhi, India) was maintained at 27° C., 70% RH, 12:12 L:D and 30 min dawn/dusk periods). 4 to 7 day old female mosquitoes, that had never received a blood meal, were used in experiments. Mosquitoes were maintained on 10% sugar solution ad libitum but starved for 12 hr prior to testing.
The Y tube olfactometer is made entirely of glass and consists of a release chamber, the Y tube itself, and a trap chamber attached to each arm (FIG. 1). Each trap chamber is divided in two by a fine glass filter. On the far side of those filters, the trap chambers can connect to charcoal filters or to gas bags or gas cylinders. Air is pulled through the olfactometer by connecting the release chamber to a vacuum tap which vents the contents of the tube. Standard air flow (0.4 L/minute) is maintained using a 0.1-1.2 LPM flow meter (John Morris Pty, LTD). The air volume of the Y-tube is approximately 1 litre and is therefore replaced every 2.5 minutes.
1 μl 10^−4% 1-octen-3-ol in mineral oil (Sigma Aldrich) was spotted on 1 cm^2 Whatman filter paper.
5% CO2 by volume was added to a 10 L FlexFilm gasbag (SKC Inc.) of compressed air.
When a CO2/1-octen-3-ol mix was required, 5% CO2 was delivered by connecting the gas bag to the requisite Y tube arm and placing the 1-octen-3-ol treated filter paper between the gasbag inlet and the glass filter of the trap chamber.
All experiments were run under PC2 quarantine conditions, at 27° C., 70% RH, under infrared light. Observers were always in the same position during the tests, at the trap chamber end of the olfactometer, between the 2 arms of the Y tube.
Using an aspirator, 25-30 starved female An. stephensi were introduced into the release chamber (FIG. 1).
After each test, mosquitoes were carefully aspirated from the apparatus by disconnecting constituent parts. The apparatus was flushed with clean air (charcoal filters only) for 5 minutes before the next batch of stimuli was introduced.
A total of 10 replicates (different batches of mosquitoes) were run for each stimuli assessment. Treatment and control arms were alternated between replicates. After completion of 10 replicates, the apparatus was rinsed in acetone and allowed to dry overnight.
Once the range of doses that “activated” mosquitoes had been established, the capacity of those concentrations to initiate a directional response was tested. In this instance, experiments were conducted in comparison to a positive control of CO2/1-octen-3-ol [[…]]. […] A positive control was used to assess whether test stimuli were at least as attractive as a standard directional stimulus.

Anopheles stephensi [2] = assay: Y-tube olfactometer, measurement of activation against clean air; type: in vivo; settings: for Concentration of greatest activation response: tested 10^-2 to 10^-5%; for Activation (against clean air): An. stephensi females
Procedure: A y-tube olfactometer was used to establish whether the volatile components of human breath elicited behavioural responses in the malaria vector Anopheles stephensi. The MR4 strain of An. stephensi (New Delhi, India) was maintained at 27° C., 70% RH, 12:12 L:D and 30 min dawn/dusk periods). 4 to 7 day old female mosquitoes, that had never received a blood meal, were used in experiments. Mosquitoes were maintained on 10% sugar solution ad libitum but starved for 12 hr prior to testing. The Y tube olfactometer is made entirely of glass and consists of a release chamber, the Y tube itself, and a trap chamber attached to each arm (FIG. 1). Each trap chamber is divided in two by a fine glass filter. On the far side of those filters, the trap chambers can connect to charcoal filters or to gas bags or gas cylinders. Air is pulled through the olfactometer by connecting the release chamber to a vacuum tap which vents the contents of the tube. Standard air flow (0.4 L/minute) is maintained using a 0.1-1.2 LPM flow meter (John Morris Pty, LTD). The air volume of the Y-tube is approximately 1 litre and is therefore replaced every 2.5 minutes. One arm is attached to a gas bag of clean air (from a compressed air cylinder) […]. The other arm remains connected to a carbon filter and the air inlet to give a plume of compressed air plus test stimuli (i.e. standard air concentration of CO2 only). 1 μl 10^−2 to 10^−5% test stimuli in mineral oil (Sigma Aldrich) was spotted on 1 cm^2 Whatman filter paper. Test stimuli was delivered by placing treated filter paper between the air inlet and the trap chamber to give a plume of compressed air plus test stimuli (i.e. standard air concentration of CO2 only). All experiments were run under PC2 quarantine conditions, at 27° C., 70% RH, under infrared light. Observers were always in the same position during the tests, at the trap chamber end of the olfactometer, between the 2 arms of the Y tube. Using an aspirator, 25-30 starved female An. stephensi were introduced into the release chamber (FIG. 1). […] After each test, mosquitoes were carefully aspirated from the apparatus by disconnecting constituent parts. The apparatus was flushed with clean air (charcoal filters only) for 5 minutes before the next batch of stimuli was introduced. A total of 10 replicates (different batches of mosquitoes) were run for each stimuli assessment. Treatment and control arms were alternated between replicates. After completion of 10 replicates, the apparatus was rinsed in acetone and allowed to dry overnight. Initial experiments were therefore less concerned with directional responses and more with establishing the range of doses that appeared to cause some form of excitation. Those initial experiments were conducted in comparison to a neutral control (a negative would be repellent) of clean air drawn through a charcoal filter. The test stimuli were tested against mosquitoes at serial dilutions in the range 10^−2 to 10^−5%. Once mosquitoes had stopped responding, the numbers in the olfactometer arms, base leg and release chamber were counted. Mosquitoes were assumed to have been “activated” if they moved into the Y tube arms.

[3] = tested on: Anopheles stephensi antennae; assay: Electroantennogram (EAG), non bloodfed females
Procedure: (§3) In order to assess Y-tube olfactometry experiments and field trials using an independent technique and to investigate the physiological basis of the observed activation and attraction behaviour, electroanntennogram (EAG) and electropalpogram (EPG) studies were performed on A. stephensi female mosquitoes. EAG studies were also performed on Anopheles farauti, Culex annulirostris and Aedes aegypti female mosquitoes.
(§4) Five to eight days Anopheles stephensi, two to fourteen days old Culex annulirostris and Aedes aegypti as well as four days old Anopheles faraulti non-blooded females, fed on 10% sucrose ad-libitum and then starved for >12 hours, were used. Mosquito head was excised and placed on the reference electrode coated with electrode gel (Parker Laboratories, Orange, N.J.). The distal end of the antennae or palp (<0.5 mm), cut to ensure a good electrical contact, were carefully placed on the recording electrode (Syntech, Germany). Signals were fed to a 10× amplifier and processed with IDAC 4 and PC-based interface and EAG software package (Syntech, Germany).
(§5) Thus 1-octen-3-ol was used in the EAG analysis as a positive control with thio compounds, (E and Z)-1-methylthio-1-propene, 3-methyl-thio-1-propanol, ally methyl sulphide, and carbon dioxide (5%) and mineral oil (negative control). Pure chemicals were diluted in mineral oil to a 10 times v/v stock solution, from which decadal dilutions were made. A 10 μl aliquot of each solution was applied to a filter paper strip (1×3.5 cm; Whatman No. 4, Fisher Scientific) and the solvent was evaporated under a fume hood before inserting the paper strip into 5 ml disposable plastic syringe (Terumo syringes). A 500 ms pulse (5 ml/s) was delivered by stimulus controller CS-55 (Syntech, Germany) to deliver chemical stimulants to a humidified continuous air flow (10 ml/s) over the electrophysiolgical preparation. The chemicals were tested randomly and applied with 0.5-1 min intervals between stimulations.
(§6) Initial screening was performed using a 10 times dilution (1/10, v/v) source dose solution. Then 1-methylthio-1-propene and 1-octen-3-ol were selected for further dose-response study. A minimum of five mosquitoes were tested for each compound to calculate the average EAG amplitude±standard error (SE).

[4] = tested on: Anopheles farauti antennae; assay: Electroantennogram (EAG), non bloodfed females; settings: chemicals at 1/10 concentrations
Procedure: as §3, §4, §5, §6

[5] = tested on: Anopheles stephensi maxillary palps; assay: Electropalpogram (EPG), non bloodfed females; settings: for EPG response compared to mineral oil control: n=7
Procedure: as §3, §4, §5, §6

Anopheles farauti s.l = assay: Field trial with CDC light traps, Anopheles farauti s.l catch; type: in vivo; settings: for Anopheles farauti s.l catch numbers: CDC light trap, one night, treatment per Table 3
Procedure: as §1, §2

[6] = tested on: Anopheles farauti maxillary palps; assay: Electropalpogram (EPG), non bloodfed females; settings: chemicals at 1/10 concentrations, CO2 5%; for EPG response compared to mineral oil control: n=6
[7] = tested on: female An. gambiae antennae; settings: cited from earlier work
[8] = tested on: female Anopheles funestus antennae; settings: cited from earlier work
C. annulirostis antennae = assay: Electroantennogram (EAG), non bloodfed females; parameters: species or system Culex annulirostris; settings: n=5
Procedure: as §3, §4
(§7) Thus 1-octen-3-ol was used in the EAG analysis as a positive control with thio compounds, (E and Z)-1-methylthio-1-propene, 3-methyl-thio-1-propanol, ally methyl sulphide, and carbon dioxide (5%) and mineral oil (negative control). […]

A. aegypti antennae = assay: Electroantennogram (EAG), non bloodfed females; parameters: species or system Aedes aegypti; settings: n=5
Procedure: as §3, §4, §7

[9] = dilution 0.00001 (10^-5)% in mineral oil
[10] = dilution 0.0001 (10^-4)% in mineral oil
[11] = dilution 0.001 (10^-3)% in mineral oil
[12] = dilution 0.01 (10^-2)% in mineral oil
[13] = chemicals at 1/10 concentrations, CO2 5%

## CC=CSC [MTPE, 1-methylthio-1-propene]
Total mosquito; 100 ppm MTPE lure alone
  Total mosquito catch numbers: 189
Total mosquito; CO2 + 1000 ppm MTPE lure
  Total mosquito catch numbers: 203 and 264 and 358
Anopheles stephensi [1]; at 0.0001%
  Attractiveness relative to 1-octen-3-ol/CO2: more attractive
Anopheles stephensi [1]; dilution 0.0001 (10^-4)%
  Attraction (against CO2 + 1-octen-3-ol): Yes
Anopheles stephensi [2]; against clean air
  Concentration of greatest activation response: 0.0001 % v/v
Anopheles stephensi [2]; at lower (0.00001%) and higher (0.001-0.01%) concentrations (v/v)
  Activation compared with that at 0.0001% v/v: reduced
Anopheles stephensi [2]; [9]
  Activation (against clean air): Yes
Anopheles stephensi [2]; [10]
  Activation (against clean air): Yes
Anopheles stephensi [2]; [11]
  Activation (against clean air): Yes
Anopheles stephensi [2]; [12]
  Activation (against clean air): Yes
[3]; chemicals at 1/10 concentrations
  EAG response, comparison among tested chemicals: strongest response
[3]; decadal dilutions, n=7
  EAG response, dose dependence: dose dependant
[4]
  EAG response, comparison among tested chemicals: strongest response
[5]; [13]
  EPG response, comparison among tested chemicals: strongest response
  EPG response compared to mineral oil control: significant responses
[5]; decadal dilutions, n=6
  EPG response, dose dependence: dose dependant
Anopheles farauti s.l; 100 ppm
  Attractancy in field trial, compared to CO2 alone: attractive
Anopheles farauti s.l; 100 ppm MTPE lure alone
  Anopheles farauti s.l catch numbers: 28
Anopheles farauti s.l; 1,000 ppm MTPE with CO2
  Attractancy in field trial, effect of CO2: CO2 synergises attractancy
Anopheles farauti s.l; 10,000 ppm
  Attractancy in field trial, compared to CO2 alone: not attractive, possibly repellent
Anopheles farauti s.l; 100,000 ppm
  Attractancy in field trial, compared to CO2 alone: not attractive, possibly repellent
Anopheles farauti s.l; CO2 + 1000 ppm MTPE lure
  Anopheles farauti s.l catch numbers: 89 and 78 and 63
Anopheles farauti s.l; MTPE lures 100-100,000 ppm
  Dose dependence of attractancy in field trial: Dose dependent attractancy
[6]
  EPG response, comparison among tested chemicals: strongest response

## C=CCSC [AMS, Allyl methyl sulphide]
Anopheles stephensi [1]; at 0.00001%
  Attractiveness relative to 1-octen-3-ol/CO2: twice
Anopheles stephensi [1]; dilution 0.00001 (10^-5)%
  Attraction (against CO2 + 1-octen-3-ol): Yes
Anopheles stephensi [2]; against clean air
  Concentration of greatest activation response: 0.00001 % v/v
Anopheles stephensi [2]; [9]
  Activation (against clean air): caused activation and Yes
Anopheles stephensi [2]; [10]
  Activation (against clean air): Yes
Anopheles stephensi [2]; [12]
  Activation (against clean air): Yes
[5]; [13]
  EPG response compared to mineral oil control: significant responses

## O=C=O [CO2, carbon dioxide, reference compound]
Total mosquito; CO2 alone (1 kg dry ice)
  Total mosquito catch numbers: 206 and 233 and 298
[5]; [13]
  EPG response compared to mineral oil control: significant responses
[6]
  EPG response compared to mineral oil control: significant responses

## C=CC(O)CCCCC (stereo not shown) [1-octen-3-ol, reference compound]
[7]
  EAG response: significant EAG response
[3]; chemicals at 1/10 concentrations, CO2 5%, n=6
  EAG response compared to mineral oil control: significantly responded
[4]; CO2 5%, n=5
  EAG response compared to mineral oil control: significantly responding
[5]; [13]
  EPG response compared to mineral oil control: did not
[8]
  EAG response: significant EAG response
[6]
  EPG response compared to mineral oil control: did not
C. annulirostis antennae
  EAG response, comparison among tested chemicals: strongest response

## CSCCCO [MTPL, 3-methylthio-1-propanol]
Anopheles stephensi [1]; at 0.01%
  Attractiveness relative to 1-octen-3-ol/CO2: 1.5
A. aegypti antennae
  EAG response, comparison among tested chemicals: strongest response
Anopheles stephensi [2]; against clean air
  Concentration range over which an activation response was initiated: 0.00001-0.01%
Anopheles stephensi [2]; [10]
  Activation (against clean air): Yes
Anopheles stephensi [2]; [11]
  Activation (against clean air): Yes
Anopheles stephensi [2]; [12]
  Activation (against clean air): Yes
[5]; [13]
  EPG response compared to mineral oil control: did not
C. annulirostis antennae
  EAG response, comparison among tested chemicals: strongest response
